Structures are written as SMILES. Like-named read-outs stand apart in the source and are kept apart here.

The record followed here is patent publication US20250109139A1, “TRICYCLIC COMPOUND, AND PREPARATION METHOD THEREFOR AND USE THEREOF” (SHANGHAITECH UNIVERSITY, priority 2022, published 2025).

Data set [1] in a line: Brain permeability test, single intraperitoneal dose in C57 male mice. The class given is in vivo. As to conditions: intraperitoneal 5 mg/kg; for Kp at 0.5 h / Kp at 2 h / concentration at 0.5 h / concentration at 2 h / Kp at 4 h / Kp / concentration at 4 h / AUC: male, C57, mouse; for Kp at 0.5 h / Kp at 2 h / Kp at 4 h / Kp: brain/plasma; for Kp at 0.5 h / Kp at 2 h / Kp at 4 h / Kp / AUC: ip; for Kp at 0.5 h: read-out: 0.5 h ratio (brain/plasma); for Kp at 2 h: read-out: 2.0 h ratio (brain/plasma); for Kp at 4 h: read-out: 4.0 h ratio (brain/plasma); for Kp: read-out: AUC ratio (brain/plasma). The procedure: Using the same method as that in the pharmacokinetic experiment, 0.030 mL of blood was collected from the orbit of each animal at 0.5 hours, 2.0 hours, and 4.0 hours, and anticoagulated with EDTA-K2. Blood samples were placed on ice after collection, and plasma was separated by centrifugation within 30 minutes (centrifugation conditions: 5000 rpm, 10 minutes, 4° C.). The collected plasma was stored at −80° C. before analysis. […] The homogenate was stored at −80° C. before analysis. Drug concentrations in plasma and brain tissues were analyzed by LC/MS/MS for comparison.

The target of data set [2] is T1, dopamine D2 receptors (Homo sapiens (Human), UniProt P14416). As to the kind of experiment: Dopamine D2 receptor Gαi1 BRET (G protein trimer dissociation). Particulars: for Emax: relative to endogenous ligand dopamine, read-out: Gαi1 BRET Emax % ± SEM. It is filed as cell-based. Put shortly:
(§1)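 G-protein assay: cells co-transfected with D2 receptor, Gαi1-Rluc, Gβ3 and Gγ9-GFP (1 μg each); β-arrestin2 assay: D2-Rluc, GRK2 and GFP2-β-arrestin2 co-transfected. Cells were reseeded after one day and tested on day three. Drug dilution series were added in duplicate with coelenterazine 400a (5 μM final), and the BRET signal was read.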

In data set [3] the target is T1, dopamine D2 receptors. As to the kind of experiment: Dopamine D2 receptor β-arrestin2 BRET (recruitment). As to conditions: for Emax: relative to endogenous ligand dopamine, read-out: β-arrestin2 BRET Emax % ± SEM. It is filed as cell-based. In outline: as §1
The target of data set [4] is T1, dopamine D2 receptors. Nature of the data set: Dopamine D2 receptor radioligand competition binding assay ([3H]-Methylspiperone). Particulars: [3H]-Methylspiperone 0.3 to 0.5 nM, 293T membranes. Put shortly:
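Membranes from cells transfected with human D2 receptor, PEI-mediated; competition with [3H]-methylspiperone for 2 h at room temperature in the dark.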

[5] abbreviates: brain, read-out: 0.5 h brain concentration.
[6] abbreviates: plasma, read-out: 0.5 h plasma concentration.
Where [7] appears, read: brain, read-out: 2.0 h brain concentration.
Where [8] appears, read: plasma, read-out: 2.0 h plasma concentration.
[9] abbreviates: read-out: Gαi1 BRET pEC50 ± SEM (converted).
The mark [10] stands for this setting: unit printed only in Cariprazine cell, read-out: Gαi1 BRET EC50.
The mark [11] stands for this setting: read-out: β-arrestin2 BRET pEC50 ± SEM (converted).
Setting [12] is: unit printed only in Cariprazine cell, read-out: β-arrestin2 BRET EC50.
The mark [13] stands for this setting: read-out: Affinity pKi ± SEM (converted).
Setting [14] is: brain, read-out: 4.0 h brain concentration.
Setting [15] is: plasma, read-out: 4.0 h plasma concentration.

T1 sequence (P14416 whole entry): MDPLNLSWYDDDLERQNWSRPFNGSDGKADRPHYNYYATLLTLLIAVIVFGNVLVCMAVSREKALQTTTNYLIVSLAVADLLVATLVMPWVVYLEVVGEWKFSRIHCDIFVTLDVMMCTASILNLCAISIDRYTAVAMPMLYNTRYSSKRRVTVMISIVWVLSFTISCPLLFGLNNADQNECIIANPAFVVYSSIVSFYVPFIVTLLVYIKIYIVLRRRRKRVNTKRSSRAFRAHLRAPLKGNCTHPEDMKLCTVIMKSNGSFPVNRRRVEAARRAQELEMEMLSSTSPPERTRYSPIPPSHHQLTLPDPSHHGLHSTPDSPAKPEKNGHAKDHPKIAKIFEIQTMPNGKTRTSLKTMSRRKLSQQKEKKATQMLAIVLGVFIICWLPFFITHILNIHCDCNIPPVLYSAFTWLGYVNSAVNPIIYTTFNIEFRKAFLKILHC

Consider `COc1cccc2c3c([nH]c12)CN(CC[C@H]1CC[C@H](NC(=O)N(C)C)CC1)CC3` [I-B7, 3-(trans-4-(2-(8-methoxy-1,3,4,9-tetrahydro-2H-pyrido[3,4-b]indol-2-yl)ethyl)cyclohexyl)-1,1-dimethylurea], for which the Kp at 0.5 h in data set [1] was 0.656. Moreover, the Kp at 2 h in data set [1] was 0.643. Besides, the concentration at 0.5 h came out at 392 ± 15 ng/mL in data set [1] (setting [5]) and 598 ± 19 ng/mL in data set [1] (setting [6]). The concentration at 2 h in data set [1] (setting [7]) stood at 73 ± 129 ng/mL; in data set [1] (setting [8]), 114 ± 67.9 ng/mL. Further, the EC50 in data set [2] (setting [9]) is 11.2 nM; in data set [2] (setting [10]), 17 nM; in data set [3] (setting [11]) it was 0.107 nM; in data set [3] (setting [12]), 0.24 nM. For the same molecule, the Emax in data set [2] came to 21%; in data set [3], 44%. For the same molecule, the Ki in data set [4] (read-out: Affinity Ki) is 2.71 nM; in data set [4] (setting [13]) it was 1.82 nM.

On to `COc1cccc2c3c(oc12)CN(CCCCOc1ccc2ccc(=O)[nH]c2c1)CC3` [I-A1, 7-(4-(8-methoxy-3,4-dihydrobenzofuro[2,3-c]pyridin-2(1H)-yl)butoxy)quinolin-2(1H)-one], for which the figures for the concentration at 0.5 h in data set [1] (setting [5]) and in data set [1] (setting [6]) were 1110 ± 43 ng/mL and 2220 ± 447 ng/mL, respectively. The results for the concentration at 2 h in data set [1] (setting [7]) and in data set [1] (setting [8]) were 236 ± 25 ng/mL and 397 ± 26.3 ng/mL, respectively. The EC50 is 23.4 nM in data set [2] (setting [9]), 48.8 nM in data set [2] (setting [10]) and 27.7 nM in data set [3] (setting [12]). Further, the maximum response (Emax) in data set [2] was 55%. In addition, the “β-arrestin2 BRET pEC50 ± SEM” value in data set [3] was “(7.62 ± 0.17)”. Further, the “Affinity pKi ± SEM” value in data set [4] is reported as “(7.07 ± 0.02)”. In data set [4] (read-out: Affinity Ki), the Ki stood at 84.4 nM.

`COc1cccc2c1cc1n2CCN(CCCCOc2ccc3ccc(=O)[nH]c3c2)C1` [I-C1, 7-(4-(9-methoxy-3,4-dihydropyrazino[1,2-a]indol-2(1H)-yl)butoxy)quinolin-2(1H)-one] registered an AUC brain in data set [1] (brain) of 3385 ng·h/mL. Besides, the Kp at 0.5 h in data set [1] stood at 0.478. Also, the Kp at 2 h in data set [1] worked out at 0.663. In data set [1], the Kp at 4 h was determined as 0.541. In data set [1], the Kp came to 0.538. In addition, the concentration at 0.5 h worked out at 1940 ± 63 ng/mL in data set [1] (setting [5]) and 4060 ± 367 ng/mL in data set [1] (setting [6]). The concentration at 2 h in data set [1] (setting [7]) is 732 ± 56 ng/mL; in data set [1] (setting [8]) it was 1100 ± 89 ng/mL. Besides, the concentration at 4 h came out at 161 ± 55 ng/mL in data set [1] (setting [14]) and 297 ± 106 ng/mL in data set [1] (setting [15]). In data set [1] (plasma), this molecule yielded an area under the curve (AUC) of 6290 ng·h/mL. For the same molecule, the results for the EC50 in data set [2] (setting [9]), in data set [2] (setting [10]) and in data set [3] (setting [12]) were 6.31 nM, 7.94 nM and 220 nM, respectively. Also, the Emax came to 72% in data set [2] and 117% in data set [3]. Besides, the results for the Ki in data set [4] (read-out: Affinity Ki) and in data set [4] (setting [13]) were 401 nM and 269 nM, respectively.

The molecule `COc1cccc2c1cc1n2CCN(CCCCOc2ccc3c(c2)NC(=O)CC3)C1` [I-C2, 7-(4-(9-methoxy-3,4-dihydropyrazino[1,2-a]indol-2(1H)-yl)butoxy)-3,4-dihydroquinolin-2(1H)-one] had an AUC brain in data set [1] (brain) of 5561 ng·h/mL. Besides, the Kp at 0.5 h in data set [1] was found to be 0.855. In addition, the Kp at 2 h in data set [1] was determined as 0.834. Further, in data set [1], the Kp at 4 h came out at 0.931. In addition, the Kp in data set [1] worked out at 0.853. Moreover, the concentration at 0.5 h in data set [1] (setting [5]) was found to be 2800 ± 208 ng/mL; in data set [1] (setting [6]) it was 3280 ± 456 ng/mL. Further, the concentration at 2 h in data set [1] (setting [7]) is 1260 ± 279 ng/mL; in data set [1] (setting [8]), 1510 ± 545 ng/mL. Further, the concentration at 4 h in data set [1] (setting [14]) amounted to 599 ± 54 ng/mL; in data set [1] (setting [15]), 558 ± 100 ng/mL. This molecule displayed an AUC in data set [1] (plasma) of 6520 ng·h/mL. In addition, the EC50 is 44.7 nM in data set [2] (setting [9]), 46.3 nM in data set [2] (setting [10]), 66.1 nM in data set [3] (setting [11]) and 122 nM in data set [3] (setting [12]). In addition, the Emax stood at 81% in data set [2] and 115% in data set [3]. For the same molecule, the figures for the Ki in data set [4] (read-out: Affinity Ki) and in data set [4] (setting [13]) were 221 nM and 61.7 nM, respectively.

Consider `COc1cccc2c3c(oc12)CN(CC[C@H]1CC[C@H](NC(=O)N(C)C)CC1)CC3` [I-A12, 3-(trans-4-(2-(8-methoxy-3,4-dihydrobenzofuro[2,3-c]pyridin-2(1H)-yl)ethyl)cyclohexyl)-1,1-dimethylurea], for which the Kp at 0.5 h in data set [1] turned out to be 1.69. Besides, the Kp at 2 h in data set [1] turned out to be 2.26. For the same molecule, the concentration at 0.5 h in data set [1] (setting [5]) was determined as 1400 ± 220 ng/mL; in data set [1] (setting [6]), 830 ± 119 ng/mL. Moreover, the concentration at 2 h in data set [1] (setting [7]) amounted to 455 ± 61 ng/mL; in data set [1] (setting [8]), 202 ± 56.2 ng/mL. Also, the values for the Emax in data set [2] and in data set [3] were 70% and 108%, respectively. For the same molecule, the figures for the EC50 in data set [2] (setting [10]), in data set [3] (setting [11]) and in data set [3] (setting [12]) were 1.38 nM, 8.13 nM and 10.7 nM, respectively. Further, the Ki was 436 nM in data set [4] (read-out: Affinity Ki) and 372 nM in data set [4] (setting [13]).
